Legend:
[1] = Model of passage through the intestinal barrier constituted of Caco-2 cells; format: in vitro ADME; conditions: human, concentration=20 μM, apical pH=6.5 and basal pH=7.4, read-out: Ptot, coefficient of apparent permeability for the monolayer of intestinal epithelial cells plus filter
Excerpt: The compounds according to the invention were investigated on a model of passage through the intestinal barrier constituted of Caco-2 cells. (M. C. Grès, Pharm. Res., 1998, 15(5), 726-733). This model makes it possible to define the coefficient Ptot of apparent permeability of the product for the monolayer of intestinal epithelial cells plus filter. As examples, compounds No. 60 (ex. 5) and No. 90 (ex. 7) have, in this model, a Ptot of 111.97 and 64.5 respectively (10^−7 cm·s^−1; concentration=20 μM; apical pH=6.5 and basal pH=7.4). These values are predictive of total absorption in humans, after administration by the oral route.

Row | Structure (SMILES) | melting point [°C] | Papp at 20 μM [1] [×10⁻⁶ cm/s]
1 | Cc1ccc(Cn2nc(CNC(=O)NC(C)(C)C)cc2-c2ccc(Cl)c(Cl)c2)cc1Cl [Compound 81, N-(tert-Butyl)-N′-((1-(3-chloro-4-methylbenzyl)-5-(3,4-dichlorophenyl)-1H-pyrazol-3-yl)methyl)urea] | 181 | 
2 | CC(C)(C)C(=O)NCc1cc(-c2ccc(Cl)c(Cl)c2)n(Cc2ccc(Cl)c(Cl)c2)n1 [Compound 60, N-((1-(3,4-Dichlorobenzyl)-5-(3,4-dichlorophenyl)-1H-pyrazol-3-yl)methyl)-2,2-dimethylpropanamide] |  | 11.2
3 | CC(C)(C)S(=O)(=O)NCc1cc(-c2ccc(Cl)c(Cl)c2)n(Cc2ccc(Cl)c(Cl)c2)n1 [Compound 90, N-((1-(3,4-Dichlorobenzyl)-5-(3,4-dichlorophenyl)-1H-pyrazol-3-yl)methyl)-2-methylpropane-2-sulfonamide] | 127 | 6.45
